# Laboratory results reported in US12378224B2 (Dong-A Socio Holdings Co., Ltd., priority 2016, dated 2025).
# pIC50: −log10 of the molar value.
# Target: human MER (528-end) (Homo sapiens (Human), UniProt Q12866)
# Experiment: HTRF Kinase Activity Biochemical Assay (KinEASE-TK)
# Conditions: 10 uM ATP
# In short: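 Activity read-out is the HTRF ratio (665 nm over 620 nm emission, ×10,000; excitation 340 nm) after 1 h detection with 0.375 nM Eu3+-cryptate anti-TK antibody plus 0.062 uM SA-XL665. Preceding kinase step: human MER (528-end), biotinylated TK substrate, 1 h, room temperature.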
# Sequence of human MER (528-end) (Q12866 528-999 limits assumed): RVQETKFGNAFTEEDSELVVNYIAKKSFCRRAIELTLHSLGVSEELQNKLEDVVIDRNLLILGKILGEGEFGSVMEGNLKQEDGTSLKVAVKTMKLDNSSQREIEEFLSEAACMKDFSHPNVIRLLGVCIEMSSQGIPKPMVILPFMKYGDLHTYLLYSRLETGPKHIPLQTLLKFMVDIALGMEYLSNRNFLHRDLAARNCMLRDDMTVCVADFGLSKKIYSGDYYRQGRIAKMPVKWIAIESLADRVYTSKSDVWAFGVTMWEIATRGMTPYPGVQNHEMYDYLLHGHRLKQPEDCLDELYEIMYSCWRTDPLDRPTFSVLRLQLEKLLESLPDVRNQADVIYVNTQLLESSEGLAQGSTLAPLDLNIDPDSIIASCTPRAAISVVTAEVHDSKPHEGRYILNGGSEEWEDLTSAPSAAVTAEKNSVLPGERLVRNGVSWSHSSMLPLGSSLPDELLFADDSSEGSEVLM
row,SMILES,pIC50
1,"Cn1cc(-c2cnc(N)c(C(=O)N[C@@H]3CCN(Cc4cccc(-c5cccc(CO)c5)c4)C3)c2)cn1 [Example 243, (R)-2-amino-N-(1-((3′-(hydroxymethyl)-[1,1′-biphenyl]-3-yl)methyl)pyrrolidin-3-yl)-5-(1-methyl-1H-pyrazol-4-yl)nicotinamide]",6.00 to 7.00
2,"CN1CCN(Cc2cccc(-c3cccc(CN4CC[C@@H](NC(=O)c5cc(-c6cnn(C)c6)cnc5N)C4)c3)c2)CC1 [Example 245, (R)-2-amino-5-(1-methyl-1H-pyrazol-4-yl)-N-(1-((3′-((4-methylpiperazin-1-yl)methyl)-[1,1′-biphenyl]-3-yl)methyl)pyrrolidin-3-yl)nicotinamide]",< 6.00
3,"CN1CCN(Cc2ccc(-c3cccc(CN4CC[C@@H](NC(=O)c5cc(-c6cnn(C)c6)cnc5N)C4)c3)cc2)CC1 [Example 246, (R)-2-amino-5-(1-methyl-1H-pyrazol-4-yl)-N-(1-((4′-((4-methylpiperazin-1-yl)methyl)-[1,1′-biphenyl]-3-yl)methyl)pyrrolidin-3-yl)nicotinamide]",< 6.00
4,"Cn1cc(-c2cnc(N)c(C(=O)N[C@@H]3CCN(Cc4ccc(F)c(-c5cccc(CO)c5)c4)C3)c2)cn1 [Example 250, (R)-2-amino-N-(1-((6-fluoro-3′-(hydroxymethyl)-[1,1′-biphenyl]-3-yl)methyl)pyrrolidin-3-yl)-5-(1-methyl-1H-pyrazol-4-yl)nicotinamide]",6.00 to 7.00
5,"Cn1cc(-c2cnc(N)c(C(=O)N[C@@H]3CCN(C(=O)Nc4cccc(-c5cnn(C6CCNCC6)c5)c4)C3)c2)cn1 [Example 260, (R)-2-amino-5-(1-methyl-1H-pyrazol-4-yl)-N-(1-((3-(1-(piperidin-4-yl)-1H-pyrazol-4-yl)phenyl)carbamoyl)pyrrolidin-3-yl)nicotinamide]",< 6.00
6,"Cn1cc(-c2cnc(N)c(C(=O)N[C@@H]3CCN(C(=O)Nc4cccc(-c5ccc(N6CCNCC6)nc5)c4)C3)c2)cn1 [Example 261, (R)-2-amino-5-(1-methyl-1H-pyrazol-4-yl)-N-(1-((3-(6-(piperazin-1-yl)pyridin-3-yl)phenyl)carbamoyl)pyrrolidin-3-yl)nicotinamide]",6.00 to 7.00
7,"CN1CCN(Cc2cccc(-c3cccc(NC(=O)N4CC[C@@H](NC(=O)c5cc(-c6cnn(C)c6)cnc5N)C4)c3)c2)CC1 [Example 267, (R)-2-amino-5-(1-methyl-1H-pyrazol-4-yl)-N-(1-((3′-((4-methylpiperazin-1-yl)methyl)-[1,1′-biphenyl]-3-yl)carbamoyl)pyrrolidin-3-yl)nicotinamide]",< 6.00
8,"CN1CCN(Cc2ccc(-c3cccc(NC(=S)N4CC[C@@H](NC(=O)c5cc(-c6cnn(C)c6)cnc5N)C4)c3)cc2)CC1 [Example 274, (R)-2-amino-5-(1-methyl-1H-pyrazol-4-yl)-N-(1-((4′-((4-methylpiperazin-1-yl)methyl)-[1,1′-biphenyl]-3-yl)carbamothioyl)pyrrolidin-3-yl)nicotinamide]",7.00 to 8.00
9,"CN1CCN(Cc2ccc(-c3cccc(OC(=O)N4CC[C@@H](NC(=O)c5cc(-c6cnn(C)c6)cnc5N)C4)c3)cc2)CC1 [Example 275, 4′-((4-methylpiperazin-1-yl)methyl)-[1,1′-biphenyl]-3-yl (R)-3-(2-amino-5-(1-methyl-1H-pyrazol-4-yl)nicotinamido)pyrrolidine-1-carboxylate]",6.00 to 7.00
10,"Cn1cc(-c2cnc(N)c(C(=O)N[C@@H]3CCN(C(=O)Oc4cccc(-c5ccc(C(=O)O)cc5)c4)C3)c2)cn1 [Example 278, (R)-3′-((3-(2-amino-5-(1-methyl-1H-pyrazol-4-yl)nicotinamido)pyrrolidine-1-carbonyl)oxy)-[1,1′-biphenyl]-4-carboxylic acid]",< 6.00
11,"Cn1cc(-c2cnc(N)c(C(=O)N[C@@H]3CCN(C(=O)Oc4cccc(-c5ccc(O)cc5)c4)C3)c2)cn1 [Example 279, 4′-hydroxy-[1,1′-biphenyl]-3-yl (R)-3-(2-amino-5-(1-methyl-1H-pyrazol-4-yl)nicotinamido)pyrrolidine-1-carboxylate]",6.00 to 7.00
12,"Cn1cc(-c2cnc(N)c(C(=O)N[C@@H]3CCN(C(=O)Oc4cccc(-c5cnn(CCO)c5)c4)C3)c2)cn1 [Example 284, 3-(1-(2-hydroxyethyl)-1H-pyrazol-4-yl)phenyl (R)-3-(2-amino-5-(1-methyl-1H-pyrazol-4-yl)nicotinamido)pyrrolidine-1-carboxylate]",< 6.00
13,"Cn1cc(-c2cnc(N)c(C(=O)N[C@@H]3CCN(C(=O)Oc4cccc(-c5cnn(CCN6CCOCC6)c5)c4)C3)c2)cn1 [Example 287, 3-(1-(2-morpholinoethyl)-1H-pyrazol-4-yl)phenyl (R)-3-(2-amino-5-(1-methyl-1H-pyrazol-4-yl)nicotinamido)pyrrolidine-1-carboxylate]",< 6.00

# The remaining lines, values ahead:
row,pIC50,SMILES
1,6.00 to 7.00,"Nc1ncc(-c2ccc(CO)cc2)cc1C(=O)N[C@@H]1CCN(Cc2ccc(Cl)cc2)C1 [Example 237, (R)-2-amino-N-(1-(4-chlorobenzyl)pyrrolidin-3-yl)-5-(4-(hydroxymethyl)phenyl)nicotinamide]"
2,6.00 to 7.00,"Cn1cc(-c2cnc(N)c(C(=O)N[C@@H]3CCN(Cc4cccc(-c5ccc(CO)cc5)c4)C3)c2)cn1 [Example 244, (R)-2-amino-N-(1-((4′-(hydroxymethyl)-[1,1′-biphenyl]-3-yl)methyl)pyrrolidin-3-yl)-5-(1-methyl-1H-pyrazol-4-yl)nicotinamide]"
3,7.00 to 8.00,"Cn1cc(-c2cnc(N)c(C(=O)N[C@@H]3CCN(C(=O)Nc4cccc(-c5cccc(CN)c5)c4)C3)c2)cn1 [Example 254, (R)-2-amino-N-(1-((3′-(aminomethyl)-[1,1′-biphenyl]-3-yl)carbamoyl)pyrrolidin-3-yl)-5-(1-methyl-1H-pyrazol-4-yl)nicotinamide]"
4,6.00 to 7.00,"Cn1cc(-c2cnc(N)c(C(=O)N[C@@H]3CCN(C(=O)Nc4cccc(-c5ccc(CN)cc5)c4)C3)c2)cn1 [Example 255, (R)-2-amino-N-(1-((4′-(aminomethyl)-[1,1′-biphenyl]-3-yl)carbamoyl)pyrrolidin-3-yl)-5-(1-methyl-1H-pyrazol-4-yl)nicotinamide]"
5,6.00 to 7.00,"Nc1ncc(-c2ccc(CO)cc2)cc1C(=O)N[C@@H]1CCN(C(=O)Nc2cccc(-c3ccccc3)c2)C1 [Example 256, (R)—N-(1-([1,1′-biphenyl]-3-ylcarbamoyl)pyrrolidin-3-yl)-2-amino-5-(4-(hydroxymethyl)phenyl)nicotinamide]"
6,6.00 to 7.00,"Cn1cc(-c2cnc(N)c(C(=O)N[C@@H]3CCN(C(=O)Nc4cccc(-c5cccc(N)c5)c4)C3)c2)cn1 [Example 257, (R)-2-amino-N-(1-((3′-amino-[1,1′-biphenyl]-3-yl)carbamoyl)pyrrolidin-3-yl)-5-(1-methyl-1H-pyrazol-4-yl)nicotinamide]"
7,6.00 to 7.00,"Cn1cc(-c2cnc(N)c(C(=O)N[C@@H]3CCN(C(=O)Nc4cccc(-c5ccc(N)cc5)c4)C3)c2)cn1 [Example 258, (R)-2-amino-N-(1-((4′-amino-[1,1′-biphenyl]-3-yl)carbamoyl)pyrrolidin-3-yl)-5-(1-methyl-1H-pyrazol-4-yl)nicotinamide]"
8,6.00 to 7.00,"Cn1cc(-c2cnc(N)c(C(=O)N[C@@H]3CCN(C(=O)Nc4cccc(-c5ccc(CO)cc5)c4)C3)c2)cn1 [Example 259, (R)-2-amino-N-(1-((4′-(hydroxymethyl)-[1,1′-biphenyl]-3-yl)carbamoyl)pyrrolidin-3-yl)-5-(1-methyl-1H-pyrazol-4-yl)nicotinamide]"
9,6.00 to 7.00,"CNc1ccc(-c2cccc(NC(=O)N3CC[C@@H](NC(=O)c4cc(-c5cnn(C)c5)cnc4N)C3)c2)cc1 [Example 262, (R)-2-amino-5-(1-methyl-1H-pyrazol-4-yl)-N-(1-((4′-(methylamino)-[1,1′-biphenyl]-3-yl)carbamoyl)pyrrolidin-3-yl)nicotinamide]"
10,6.00 to 7.00,"Cn1cc(-c2cnc(N)c(C(=O)N[C@@H]3CCN(C(=O)Nc4cccc(-c5cccc(CO)c5)c4)C3)c2)cn1 [Example 264, (R)-2-amino-N-(1-((3′-(hydroxymethyl)-[1,1′-biphenyl]-3-yl)carbamoyl)pyrrolidin-3-yl)-5-(1-methyl-1H-pyrazol-4-yl)nicotinamide]"
11,7.00 to 8.00,"CN(C)Cc1cccc(-c2cccc(NC(=O)N3CC[C@@H](NC(=O)c4cc(-c5cnn(C)c5)cnc4N)C3)c2)c1 [Example 265, (R)-2-amino-N-(1-((3′-((dimethylamino)methyl)-[1,1′-biphenyl]-3-yl)carbamoyl)pyrrolidin-3-yl)-5-(1-methyl-1H-pyrazol-4-yl)nicotinamide]"
12,7.00 to 8.00,"CN1CCN(Cc2ccc(-c3cccc(NC(=O)N4CC[C@@H](NC(=O)c5cc(-c6cnn(C)c6)cnc5N)C4)c3)cc2)CC1 [Example 268, (R)-2-amino-5-(1-methyl-1H-pyrazol-4-yl)-N-(1-((4′-((4-methylpiperazin-1-yl)methyl)-[1,1′-biphenyl]-3-yl)carbamoyl)pyrrolidin-3-yl)nicotinamide]"
13,< 6.00,"Cn1cc(-c2cnc(N)c(C(=O)N[C@@H]3CCN(C(=O)Nc4ccc(-c5ccc(CN)cc5)cc4)C3)c2)cn1 [Example 270, (R)-2-amino-N-(1-((4′-(aminomethyl)-[1,1′-biphenyl]-4-yl)carbamoyl)pyrrolidin-3-yl)-5-(1-methyl-1H-pyrazol-4-yl)nicotinamide]"
14,6.00 to 7.00,"Cn1cc(-c2cnc(N)c(C(=O)N[C@@H]3CCN(C(=O)Nc4ccc(-c5ccccc5)cc4)C3)c2)cn1 [Example 271, (R)—N -(1-([1,1′-biphenyl]-4-ylcarbamoyl)pyrrolidin-3-yl)-2-amino-5-(1-methyl-1H-pyrazol-4-yl)nicotinamide]"
15,6.00 to 7.00,"Cn1cc(-c2cnc(N)c(C(=O)N[C@@H]3CCN(C(=O)Oc4cccc(-c5ccc(CO)cc5)c4)C3)c2)cn1 [Example 280, 4′-(hydroxymethyl)-[1,1′-biphenyl]-3-yl (R)-3-(2-amino-5-(1-methyl-1H-pyrazol-4-yl)nicotinamido)pyrrolidine-1-carboxylate]"
